Patent US20020137929A1, “1 - (3-heterocyclylphenyl) isothiourea, -isourea, -guanidine and -amidine herbicidal agents” (Intellectual Property Department, BASF Aktiengesellschaft, priority 1998, published 2002)

How the values were obtained:
[1] = test system: IPOSS (Morningglory Spp.); test: Postemergence herbicidal evaluation; assay type: in vivo, Ipomoea Spp.
Procedure: (§1) In the tests, seedling plants are grown in jiffy flats for about two weeks. The test compounds are dispersed in 50/50 acetone/water mixtures containing 0.5% TWEEN®20, a polyoxyethylene sorbitan monolaurate surfactant of Atlas Chemical Industries, in sufficient quantities to provide the equivalent of about 0.0156 kg to 0.500 kg per hectare of active compound when applied to the plants through a spray nozzle operating at 40 psi for a predetermined time. After spraying, the plants are placed on greenhouse benches and are cared for in accordance with conventional greenhouse procedures. From four to five weeks after treatment, the seedling plants are examined and rated according to the rating system set forth below. Where more than one test is involved for a given compound, the data are averaged.
(§2) Plant species employed in these evaluations are reported by header abbreviation, common name and scientific name.
(§3) Results of herbicide evaluation are expressed on a rating scale (0-9). The scale is based upon a visual observation of plant stand, vigor, malformation, size, chlorosis and overall plant appearance as compared with a control.

GLXMA (Soybean) [2] = test: Postemergence herbicidal evaluation; assay type: in vivo, Glycine max
Procedure: as §1, §2, §3

ZEAMX (Corn, Field) = test: Postemergence herbicidal evaluation; assay type: in vivo, Zea mays; details: postemergence
Summary of the method: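 Visual 0-9 injury score (stand, vigor, malformation, size, chlorosis, appearance vs untreated) taken four to five weeks post-spray, averaged across repeat tests. Test plants about two weeks old; foliar spray of acetone/water (1:1) with 0.5% surfactant delivering ~0.0156-0.500 kg active/ha.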

ABUTH (Velvetleaf) = test: Preemergence herbicidal evaluation; assay type: in vivo, Abutilon theophrasti; details: rated 4-5 weeks after treatment
Summary of the method: (§4)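 Steps: mix seeds into potting soil; plant atop ~1 inch soil; spray compound in aqueous acetone (~0.0156-0.500 kg/ha equivalent); maintain in greenhouse with watering; rate visually 0-9 versus control at 4-5 weeks.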

AMBEL (Ragweed, Common) = test: Preemergence herbicidal evaluation; assay type: in vivo, Ambrosia artemisifolia; details: rated 4-5 weeks after treatment
Summary of the method: as §4

[3] = test system: IPOSS (Morningglory Spp.); test: Preemergence herbicidal evaluation; assay type: in vivo, Ipomoea Spp.; details: rated 4-5 weeks after treatment
Text: as §3
(§5) The preemergence herbicidal activity of the test compounds of the present invention is exemplified by the following tests in which the seeds of a variety of monocotyledonous and dicotyledonous plants are separately mixed with potting soil and planted on top of approximately one inch of soil in separate pint cups. After planting, the cups are sprayed with the selected aqueous acetone solution containing test compound in sufficient quantity to provide the equivalent of about 0.0156 to 0.500 kg per hectare of test compound per cup. The treated cups are then placed on greenhouse benches, watered and cared for in accordance with conventional greenhouse procedures. From four to five weeks after treatment, the tests are terminated and each cup is examined and rated according to the rating system provided in Example 37.
(§6) The compounds evaluated are reported by compound number given in Example 37.

GLXMA (Soybean) [4] = test: Preemergence herbicidal evaluation; assay type: in vivo, Glycine max; details: rated 4-5 weeks after treatment
Text: as §3, §5, §6

MOOVA (Monochoria) = test: Postemergence weed control under flooded paddy conditions; assay type: in vivo, Monochoria vaginalis; details: postemergence weeds, 3-4 weeks after treatment
Summary of the method: (§7)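 Injury ratings (0–9 scale covering stand, vigor, malformation, size, chlorosis and overall appearance versus control) were made three to four weeks after treatment. Test material, about 0.0313 to 0.500 kg/ha a.i. in 50/50 v/v aqueous/acetone, was added to flood water 1.5 to 3 cm deep over 3 to 5 cm weeds and 1.5 to 2.5 leaf rice.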

[5] = test system: SAGPY (Arrowhead (Pygmaea)); test: as above; assay type: in vivo, Sagittaria pygmaea; details: postemergence weeds, 3-4 weeks after treatment
Summary of the method: as §7

[6] = test system: GLXMAW (Soybean, Williams); test: Preemergence herbicidal evaluation; assay type: in vivo, Glycine max, (L.) Merr. cv Williams; details: rated 4-5 weeks after treatment
Summary of the method: as §4

ORYSAT (Rice, Tebonnet) [7] = test: Rice tolerance to post-transplant applications, flooded paddy conditions (Table III); assay type: in vivo, Oryza sativa, (L.) Tebonnet; details: post-transplant rice, flooded paddy, rated 3-4 weeks after treatment
Summary of the method: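 Injury scored 0-9 by eye against untreated control, judging stand, vigor, malformation, size and chlorosis, three to four weeks after treatment. Compound in 50/50 aqueous/acetone, about 0.0313 to 0.500 kg/ha, was applied to paddy water (1.5 to 3 cm depth) three days after transplanting paired ten-day-old Tebonnet rice seedlings.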

ORYSAT (Rice, Tebonnet) [8] = test: Rice tolerance to post-transplant applications, flooded paddy conditions (Table IV); assay type: in vivo, Oryza sativa, (L.) Tebonnet; details: flooded paddy, post-transplant rice, 3-4 weeks after treatment
Summary of the method: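 With weeds 3 to 5 cm tall and rice at the 1.5 to 2.5 leaf stage, containers were flooded and water held 1.5 to 3 cm above soil. Compounds in 50/50 v/v aqueous/acetone went into the flood water at about 0.0313 to 0.500 kg/ha a.i. Effects were visually rated 0–9 against controls after three to four weeks in the greenhouse.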

CN1C(=O)C(F)SC1=Nc1cc(N2C(=O)C3=C(CCCC3)C2=O)c(F)cc1Cl (centres unmarked) [Compound 5, N-{4-chloro-2-fluoro-5-[(5-fluoro-3-methyl-4-oxo-2-thiazolidinylidene)amino]phenyl}-1-cyclohexene-1,2-dicarboximide]
IPOSS herbicidal rating ([1]; rate 0.0157 kg/ha): 0.0
IPOSS herbicidal rating ([1]; rate 0.0313 kg/ha): 1.0
IPOSS herbicidal rating ([1]; rate 0.0625 kg/ha): 2.0
IPOSS herbicidal rating ([1]; rate 0.1250 kg/ha): 4.0
IPOSS herbicidal rating ([1]; rate 0.2500 kg/ha): 9.0
IPOSS herbicidal rating ([1]; rate 0.5000 kg/ha): 9.0
GLXMA herbicidal rating (GLXMA (Soybean) [2]; rate 0.0157 kg/ha): 3.0
GLXMA herbicidal rating (GLXMA (Soybean) [2]; rate 0.0313 kg/ha): 3.0
GLXMA herbicidal rating (GLXMA (Soybean) [2]; rate 0.0625 kg/ha): 3.0
GLXMA herbicidal rating (GLXMA (Soybean) [2]; rate 0.1250 kg/ha): 4.0
GLXMA herbicidal rating (GLXMA (Soybean) [2]; rate 0.2500 kg/ha): 4.0
GLXMA herbicidal rating (GLXMA (Soybean) [2]; rate 0.5000 kg/ha): 4.5
ZEAMX herbicidal rating (ZEAMX (Corn, Field); rate 0.0157 kg/ha): 3.5
ZEAMX herbicidal rating (ZEAMX (Corn, Field); rate 0.0313 kg/ha): 3.5
ZEAMX herbicidal rating (ZEAMX (Corn, Field); rate 0.0625 kg/ha): 4.0
ZEAMX herbicidal rating (ZEAMX (Corn, Field); rate 0.1250 kg/ha): 3.5
ZEAMX herbicidal rating (ZEAMX (Corn, Field); rate 0.2500 kg/ha): 4.0
ZEAMX herbicidal rating (ZEAMX (Corn, Field); rate 0.5000 kg/ha): 3.5
ABUTH preemergence herbicidal rating (ABUTH (Velvetleaf); rate 0.0625 kg/ha): 0.0
ABUTH preemergence herbicidal rating (ABUTH (Velvetleaf); rate 0.1250 kg/ha): 0.0
ABUTH preemergence herbicidal rating (ABUTH (Velvetleaf); rate 0.2500 kg/ha): 0.0
ABUTH preemergence herbicidal rating (ABUTH (Velvetleaf); rate 0.5000 kg/ha): 0.0
AMBEL preemergence herbicidal rating (AMBEL (Ragweed, Common); rate 0.0625 kg/ha): 0.0
AMBEL preemergence herbicidal rating (AMBEL (Ragweed, Common); rate 0.1250 kg/ha): 0.0
AMBEL preemergence herbicidal rating (AMBEL (Ragweed, Common); rate 0.2500 kg/ha): 0.0
AMBEL preemergence herbicidal rating (AMBEL (Ragweed, Common); rate 0.5000 kg/ha): 0.0
IPOSS preemergence herbicidal rating ([3]; rate 0.0625 kg/ha): 0.0
IPOSS preemergence herbicidal rating ([3]; rate 0.1250 kg/ha): 0.0
IPOSS preemergence herbicidal rating ([3]; rate 0.2500 kg/ha): 0.0
IPOSS preemergence herbicidal rating ([3]; rate 0.5000 kg/ha): 0.0
GLXMA preemergence herbicidal rating (GLXMA (Soybean) [4]; rate 0.0625 kg/ha): 1.0
GLXMA preemergence herbicidal rating (GLXMA (Soybean) [4]; rate 0.1250 kg/ha): 1.0
GLXMA preemergence herbicidal rating (GLXMA (Soybean) [4]; rate 0.2500 kg/ha): 2.0
GLXMA preemergence herbicidal rating (GLXMA (Soybean) [4]; rate 0.5000 kg/ha): 2.0
Herbicidal rating MOOVA (MOOVA (Monochoria); rate 0.1250 kg/ha): 1.0
Herbicidal rating MOOVA (MOOVA (Monochoria); rate 0.2500 kg/ha): 2.0
Herbicidal rating MOOVA (MOOVA (Monochoria); rate 0.5000 kg/ha): 4.0
Herbicidal rating SAGPY ([5]; rate 0.1250 kg/ha): 0.0
Herbicidal rating SAGPY ([5]; rate 0.2500 kg/ha): 0.0
Herbicidal rating SAGPY ([5]; rate 0.5000 kg/ha): 0.0

O=C1CSC(=Nc2cc(N3C(=O)C4=C(CCCC4)C3=O)c(F)cc2Cl)N1c1ccccc1 [Compound 3, N-{4-chloro-2-fluoro-5-[(4-oxo-3-phenyl-2-thiazolidinylidene)amino]phenyl}-1-cyclohexene-1,2-dicarboximide]
IPOSS herbicidal rating ([1]; rate 0.0313 kg/ha): 2.0
IPOSS herbicidal rating ([1]; rate 0.0625 kg/ha): 4.0
IPOSS herbicidal rating ([1]; rate 0.1250 kg/ha): 9.0
IPOSS herbicidal rating ([1]; rate 0.2500 kg/ha): 8.0
IPOSS herbicidal rating ([1]; rate 0.5000 kg/ha): 9.0
ZEAMX herbicidal rating (ZEAMX (Corn, Field); rate 0.0157 kg/ha): 3.0
ZEAMX herbicidal rating (ZEAMX (Corn, Field); rate 0.0313 kg/ha): 3.0
ZEAMX herbicidal rating (ZEAMX (Corn, Field); rate 0.0625 kg/ha): 3.0
ZEAMX herbicidal rating (ZEAMX (Corn, Field); rate 0.1250 kg/ha): 3.0
ZEAMX herbicidal rating (ZEAMX (Corn, Field); rate 0.2500 kg/ha): 3.5
ZEAMX herbicidal rating (ZEAMX (Corn, Field); rate 0.5000 kg/ha): 3.5
ABUTH preemergence herbicidal rating (ABUTH (Velvetleaf); rate 0.0625 kg/ha): 2.0
ABUTH preemergence herbicidal rating (ABUTH (Velvetleaf); rate 0.1250 kg/ha): 2.0
ABUTH preemergence herbicidal rating (ABUTH (Velvetleaf); rate 0.2500 kg/ha): 0.0
ABUTH preemergence herbicidal rating (ABUTH (Velvetleaf); rate 0.5000 kg/ha): 6.0
AMBEL preemergence herbicidal rating (AMBEL (Ragweed, Common); rate 0.0313 kg/ha): 0.0
AMBEL preemergence herbicidal rating (AMBEL (Ragweed, Common); rate 0.0625 kg/ha): 0.0
AMBEL preemergence herbicidal rating (AMBEL (Ragweed, Common); rate 0.1250 kg/ha): 2.0
AMBEL preemergence herbicidal rating (AMBEL (Ragweed, Common); rate 0.2500 kg/ha): 2.0
AMBEL preemergence herbicidal rating (AMBEL (Ragweed, Common); rate 0.5000 kg/ha): 7.0
IPOSS preemergence herbicidal rating ([3]; rate 0.0313 kg/ha): 0.0
IPOSS preemergence herbicidal rating ([3]; rate 0.0625 kg/ha): 0.0
IPOSS preemergence herbicidal rating ([3]; rate 0.1250 kg/ha): 0.0
IPOSS preemergence herbicidal rating ([3]; rate 0.2500 kg/ha): 2.0
IPOSS preemergence herbicidal rating ([3]; rate 0.5000 kg/ha): 4.0
GLXMAW preemergence herbicidal rating ([6]; rate 0.0313 kg/ha): 0.0
GLXMAW preemergence herbicidal rating ([6]; rate 0.0625 kg/ha): 0.0
GLXMAW preemergence herbicidal rating ([6]; rate 0.1250 kg/ha): 0.0
GLXMAW preemergence herbicidal rating ([6]; rate 0.2500 kg/ha): 0.0
GLXMAW preemergence herbicidal rating ([6]; rate 0.5000 kg/ha): 2.0
Herbicidal rating ORYSAT (rice tolerance) (ORYSAT (Rice, Tebonnet) [7]; 0.0625 kg/ha): 0.0
Herbicidal rating ORYSAT (rice tolerance) (ORYSAT (Rice, Tebonnet) [7]; 0.1250 kg/ha): 2.0
Herbicidal rating ORYSAT (rice tolerance) (ORYSAT (Rice, Tebonnet) [7]; 0.2500 kg/ha): 2.0
Herbicidal rating ORYSAT (rice tolerance) (ORYSAT (Rice, Tebonnet) [7]; 0.5000 kg/ha): 3.0
Herbicidal rating MOOVA (MOOVA (Monochoria); rate 0.0625 kg/ha): 1.0
Herbicidal rating MOOVA (MOOVA (Monochoria); rate 0.1250 kg/ha): 4.5
Herbicidal rating MOOVA (MOOVA (Monochoria); rate 0.2500 kg/ha): 4.5
Herbicidal rating MOOVA (MOOVA (Monochoria); rate 0.5000 kg/ha): 5.5
Herbicidal rating SAGPY ([5]; rate 0.0625 kg/ha): 0.0
Herbicidal rating SAGPY ([5]; rate 0.1250 kg/ha): 0.0
Herbicidal rating SAGPY ([5]; rate 0.2500 kg/ha): 0.0
Herbicidal rating SAGPY ([5]; rate 0.5000 kg/ha): 0.0
Herbicidal rating ORYSAT (rice tolerance) (ORYSAT (Rice, Tebonnet) [8]; rate 0.0625 kg/ha): 0.0
Herbicidal rating ORYSAT (rice tolerance) (ORYSAT (Rice, Tebonnet) [8]; rate 0.1250 kg/ha): 1.0
Herbicidal rating ORYSAT (rice tolerance) (ORYSAT (Rice, Tebonnet) [8]; rate 0.2500 kg/ha): 1.0
Herbicidal rating ORYSAT (rice tolerance) (ORYSAT (Rice, Tebonnet) [8]; rate 0.5000 kg/ha): 2.0
